Experiments:
Format in all cases: in vivo
corn = experiment: Early growth of corn in transparent cups, dry weight of seedlings; details: for Dry Weight of Roots / Total Dry Weight of Plant + Roots / % Difference from Baseline for Plant + Roots / % Difference from Baseline for Roots Only: corn; for Dry Weight of Roots / Total Dry Weight of Plant + Roots: 24 days after planting, .P buried at planting, .L buried 11 days after planting; for % Difference from Baseline for Plant + Roots / % Difference from Baseline for Roots Only: 24 days, compared to the baseline with the highest total weight
Description: Each cup was given 0.2 g urea in 25 mL of solution. Two corn seeds were planted in each cup 1 inch deep and 3 inches apart. The cups holding the soil were transparent plastic and were placed inside opaque cups. The seeds were planted in the soil against the inside surface of the transparent cups and the outer opaque cups protected the roots from light during growth. By removing the inner cups, the roots were viewed and pictures taken without disturbing the plants as they were developing and therefore a view of the early growth of the roots was possible. […] After planting the seeds, the mixtures in Table 12 were buried 1.27 cm (½ inch) deep in the center of each cup. Some of these were buried on the same day as the seed was planted (noted as .P in Table 13), and others were buried 11 days after the seed was planted (noted as .L in Table 13). […] If two seeds sprouted in a cup, the second was immediately removed. One cup for each formulation was tested. The baseline was tested in duplicate. Twenty-four days after planting the corn, the plants with roots were gently removed from the cups, rinsed, dried, and weighed. The % differences shown in Table 13 are compared to the baseline with the highest weight of total weight for the plant and roots.

wheat = experiment: Early growth of wheat in transparent cups, dry weight of seedlings; details: for Dry Weight of Roots Only / Dry Weight of Total Plant + Roots: 28 days after planting, .P buried at planting, .L buried 11 days after planting; for % Difference for Plant + Roots / % Difference for Roots Only: 28 days, compared to the baseline with the highest total weight
Description: Each cup was given 0.2 g urea in 25 mL of solution. Four wheat seeds were planted in each cup 1 inch deep and 3 inches apart. The cups holding the soil were transparent plastic and were placed inside opaque cups. The seeds were planted in the soil against the inside surface of the transparent cups and the outer opaque cups protected the roots from light during growth. By removing the inner cups, the roots were viewed and pictures taken without disturbing the plants as they were developing and therefore a view of the early growth of the roots was possible. […] After planting the seeds, the mixtures in Table 12 were buried 1.27 cm (½ inch) deep in the center of each cup. Some of these were buried on the same day as the seeds were planted (noted as .P in Table 14), and others were buried 11 days after the seed was planted (noted as .L in Table 14). If more than two seeds sprouted in a cup, the seedlings were removed to allow only two to remain. One of each formulation was tested. The baseline was tested in duplicate. Twenty-eight days after planting the wheat, the plants with roots were gently removed from the cups, rinsed, dried, and weighed.

cotton = experiment: Early growth of cotton in transparent cups, dry weight of plants and roots; details: cotton cup test
Description: Each cup was given 0.2 g urea in 25 mL of solution. […] The cups holding the soil were transparent plastic and were placed inside opaque cups. The seeds were planted in the soil against the inside surface of the transparent cups and the outer opaque cups protected the roots from light during growth. By removing the inner cups, the roots were viewed and pictures taken without disturbing the plants as they were developing and therefore a view of the early growth of the roots was possible. […] If two seeds sprouted in a cup, the second was immediately removed.

**Q.** For O=C([O-])O.[K+] [A.P, potassium bicarbonate], which “Dry Weight of Roots” value (corn) is on record?
**A.** 0.2313 g

**Q.** And the “Total Dry Weight of Plant + Roots” value (corn)?
**A.** 0.5292 g

**Q.** And the “Dry Weight of Roots” value (corn; listed as A.L)?
**A.** 0.4121 g

**Q.** And the “Total Dry Weight of Plant + Roots” value (corn; listed as A.L)?
**A.** 0.7818 g

**Q.** What about the “% Difference from Baseline for Plant + Roots” value (corn) of the same compound?
**A.** −20%

**Q.** What about the “% Difference from Baseline for Roots Only” value (corn) of the same compound?
**A.** −29%

**Q.** What about the “% Difference from Baseline for Plant + Roots” value (corn; listed as A.L) of the same compound?
**A.** 18%

**Q.** What about the “% Difference from Baseline for Roots Only” value (corn; listed as A.L) of the same compound?
**A.** 26%

**Q.** What about the “Dry Weight of Roots Only” value (wheat) of the same compound?
**A.** 0.0669 g

**Q.** What about the “Dry Weight of Total Plant + Roots” value (wheat) of the same compound?
**A.** 0.2337 g

**Q.** What about the “Dry Weight of Roots Only” value (wheat; listed as A.L) of the same compound?
**A.** 0.1166 g

**Q.** What about the “Dry Weight of Total Plant + Roots” value (wheat; listed as A.L) of the same compound?
**A.** 0.2670 g

**Q.** What about the “% Difference for Plant + Roots” value (wheat) of the same compound?
**A.** −8%

**Q.** And the “% Difference for Roots Only” value (wheat)?
**A.** −46%

**Q.** What about the “% Difference for Plant + Roots” value (wheat; listed as A.L) of the same compound?
**A.** 5%

**Q.** What about the “% Difference for Roots Only” value (wheat; listed as A.L) of the same compound?
**A.** −6%

**Q.** For O=C([O-])O.[K+] [H.P, potassium bicarbonate], which “Dry Weight of Roots” value (corn) is on record?
**A.** 0.2744 g

**Q.** And the “Total Dry Weight of Plant + Roots” value (corn)?
**A.** 0.5252 g

**Q.** And the “Dry Weight of Roots” value (corn; listed as H.L)?
**A.** 0.2538 g

**Q.** What about the “Total Dry Weight of Plant + Roots” value (corn; listed as H.L) of the same compound?
**A.** 0.5597 g

**Q.** What about the “% Difference from Baseline for Plant + Roots” value (corn) of the same compound?
**A.** −20%

**Q.** What about the “% Difference from Baseline for Roots Only” value (corn) of the same compound?
**A.** −16%

**Q.** What about the “% Difference from Baseline for Plant + Roots” value (corn; listed as H.L) of the same compound?
**A.** −15%

**Q.** What about the “% Difference from Baseline for Roots Only” value (corn; listed as H.L) of the same compound?
**A.** −22%

**Q.** And the “Dry Weight of Roots Only” value (wheat)?
**A.** 0.1334 g

**Q.** What about the “Dry Weight of Total Plant + Roots” value (wheat) of the same compound?
**A.** 0.3030 g

**Q.** What about the “Dry Weight of Roots Only” value (wheat; listed as H.L) of the same compound?
**A.** 0.1286 g

**Q.** And the “Dry Weight of Total Plant + Roots” value (wheat; listed as H.L)?
**A.** 0.2881 g

**Q.** And the “% Difference for Plant + Roots” value (wheat)?
**A.** 19%

**Q.** And the “% Difference for Roots Only” value (wheat)?
**A.** 7%

**Q.** And the “% Difference for Plant + Roots” value (wheat; listed as H.L)?
**A.** 13%

**Q.** What about the “% Difference for Roots Only” value (wheat; listed as H.L) of the same compound?
**A.** 3%

**Q.** O=C([O-])O.[K+] [KBC, potassium bicarbonate] was tested. Which “Early growth of cotton plants and roots (in words)” value (cotton) did it give?
**A.** produced more benefit with early growth of cotton than sodium bicarbonate

**Q.** What about the “Benefit to early growth of corn (in words)” value (corn; corn cup test) of the same compound?
**A.** did not provide a benefit

Reference: patent publication US20220267231A1, “FERTILIZER CONTAINING A SEED GRIND AND A METHOD OF USING THE FERTILIZER TO ENHANCE PLANT GROWTH” (Innovations for World Nutrition, LLC, priority 2020, published 2022)
